The subject of one test is caspase-3/7. Nature of the test: Enzymatic activity of caspases-3/7 in treated MDA-MB-231 cells. As to conditions: MDA-MB-231 cells treated at 10 μM. Type of test: cell-based, human.
In test [1] the test system is human metastatic breast cancer line, MDA-MB-231. The note with it: different experimental conditions; cited from earlier work.

SMILES strings stand for the structures.

As for `CN[C@@H](C)C(=O)N[C@@H](CSCc1ccc(-c2ccc(CSC[C@H](NC(=O)[C@H](C)NC)C(=O)N3CCC[C@H]3C(=O)NC(c3ccccc3)c3ccccc3)cc2)cc1)C(=O)N1CCC[C@H]1C(=O)NC(c1ccccc1)c1ccccc1` [Compound D13], in the test with caspase-3/7, the “potency relative to monomer M11 in caspase-3/7 activation” value is on record as ~ 2.5 ×. In the case of `CN[C@@H](C)C(=O)N[C@H]1CCCC[C@H]2CC[C@@H](C(=O)N[C@@H](c3ccccc3)c3cn(CCCCc4ccc(CCCCn5cc([C@@H](NC(=O)[C@@H]6CC[C@@H]7CCCC[C@H](NC(=O)[C@H](C)NC)C(=O)N76)c6ccccc6)nn5)cc4)nn3)N2C1=O` [SM-164], in test [1], the “in vivo activity profile compared with M11, in words” value is “markedly improved activity profiles”.

The values are drawn from article PMC4592835 (Bioorganic & medicinal chemistry letters, 2015).
